Results taken from patent US20040115160A1, “Quaternary ammonium esters for disinfection and preservation” (priority 2002, published 2004).
Where two headings read alike, the source gives them in different places.

Columns and labels:
Experiment in all cases: Stand-alone biocidal test without organic soil
Type in all cases: cell-based
[1] = system: Fusarium solani (ATCC 36031); conditions: Fusarium solani, read-out: Stand-alone biocidal result (microbial log reduction) F. solani
Procedure: (§1) A test was conducted to study the microbiocidal efficacy of a solution containing a quaternary ammonium ester of the present invention employing borate buffered saline (BBS). The antimicrobial efficacy of each of the various compositions for the chemical disinfection of contact lenses was evaluated. Microbial challenge inoculums were prepared using Pseudomonas aeruginosa (ATCC 9027), Staphylococcus aureus (ATCC 6538), Serratia marcescens (ATCC 13880), Candida albicans (ATCC 10231) and Fusarium solani (ATCC 36031). The test organisms were cultured on appropriate agar and the cultures were harvested using sterile DPBST (Dulbecco's Phosphate Buffered Saline plus 0.05 percent weight/volume polysorbate 80) or a suitable diluent and transferred to a suitable vessel. Spore suspensions were filtered through sterile glass wool to remove hyphal fragments. Serratia marcescens, as appropriate, was filtered through a 1.2 mμ filter to clarify the suspension. After harvesting, the suspension was centrifuged at no more than 5000×g for a maximum of 30 minutes at 20 to 25° C. The supernatant was poured off and resuspended in DPBST or other suitable diluent. The suspension was centrifuged a second time, and resuspended in DPBST or other suitable diluent. All challenge bacterial and fungal cell suspensions were adjusted with DPBST or other suitable diluent to 1×10^7 to 1×10^8 cfu/ml. The appropriate cell concentration may be estimated by measuring the turbidity of the suspension, for example, using a spectrophotometer at a preselected wavelength, for example 490 nm. One tube was prepared containing a minimum of 10 ml of test solution per challenge organism. Each tube of the solution to be tested was inoculated with a suspension of the test organism sufficient to provide a final count of 1×10^5 to 1×10^6 cfu/ml, the volume of the inoculum not exceeding 1 percent of the sample volume. Dispersion of the inoculum was ensured by vortexing the sample for at least 15 seconds. The inoculated product was stored at 10 to 25° C. Aliquots in the amount of 1.0 ml were taken of the inoculated product for determination of viable counts after certain time periods of disinfection. The time points for the bacteria were, for example, 1, 2, 3 and 4 hours when the proposed regimen soaking time was four hours. Yeast and mold were tested at an additional timepoint of 16 hours (4 times the regimen time). The suspension was mixed well by vortexing vigorously for at least 5 seconds. The 1.0 ml aliquots removed at the specified time intervals were subjected to a suitable series of decimal dilutions in validated neutralizing media. The suspensions were mixed vigorously and incubated for a suitable period of time to allow for neutralization of the microbial agent at room temperature. The viable count of organisms was determined in appropriate dilutions by preparation of triplicate plates of trypticase soy (TSA) agar for bacteria and Sabouraud dextrose agar (SDA) for mold and yeast. The bacterial recovery plates were incubated at 30 to 35° C. for two to four days. The yeast was incubated at 20 to 30° C. for two to four days and mold recovery plates were incubated at 20 to 25° C. for three to seven days. The average number of colony forming units was determined on countable plates. Countable plates refer to 30 to 300 cfu/plates for bacteria and yeast, and 8 to 80 cfu/plate for mold except when colonies are observed only for the 10^0 or 10^−1 dilution plates. The microbial reduction was then calculated at the specified time points. […] Following inoculation in a validated neutralizing broth and incubation for an appropriate period of time, the inoculum control must be between 1.0×10^5 to 1.0×10^6 cfu/ml. […]

[2] = system: Staphylococcus aureus (ATCC 6538); conditions: 25 ppm in BBS, without organic soil
Procedure: as §1

[3] = system: Candida albicans (ATCC 10231); conditions: Candida albicans, read-out: Stand-alone biocidal result (microbial log reduction) C. albicans
Procedure: as §1

[4] = system: Pseudomonas aeruginosa (ATCC 9027); conditions: 25 ppm in BBS, without organic soil
Procedure: as §1

[5] = system: Serratia marcescens (ATCC 13880); conditions: 25 ppm in BBS, without organic soil
Procedure: as §1

## CCCCCCCCCCCCCC(=O)OCCC[N+](C)(C)Cc1ccccc1 [Compound 1, N-myristoyloxypropyl-N-benzyl-N,N-dimethylammonium chloride]
[1]; ATCC36031, 1 h
  log reduction at 25 ppm: 4
[1]; ATCC36031, 4 h
  log reduction at 25 ppm: 4.2
[2]; 1 hr.
  Stand-alone biocidal result (microbial log reduction) S. aureus: 4.6
[2]; 4 hr.
  Stand-alone biocidal result (microbial log reduction) S. aureus: >4.8
[3]; ATCC10231, 1 h
  log reduction at 25 ppm: 3.6
[3]; ATCC10231, 4 h
  log reduction at 25 ppm: > 4.8
[4]; 1 hr.
  Stand-alone biocidal result (microbial log reduction) P. aeruginosa: >4.7
[4]; 4 hr.
  Stand-alone biocidal result (microbial log reduction) P. aeruginosa: >4.7
[5]; 1 hr.
  Stand-alone biocidal result (microbial log reduction) S. marcescens: 4.8
[5]; 4 hr.
  Stand-alone biocidal result (microbial log reduction) S. marcescens: >4.8
